These are literature values, as cited in patent publication US12379360B2, “Detection system for an electronic nose allowing a physicochemical classification of odours and electronic nose comprising such a system” (COMMISSARIAT À L'ÉNERGIE ATOMIQUE ET AUX ÉNERGIES …, priority 2019, dated 2025).

Molecules are shown by their SMILES.

As a reminder, the logP is the decadic logarithm of the partition coefficient of the neutral form, usually between octanol and water.

For data set [1] the following is noted: pure compound.
The conditions of data set [2]: n-octanol/water partition coefficient.
The conditions of data set [3]: scale of R. M. Sweet and D. Eisenberg, reference [4].

Regarding `NCCCCN` [DAB, 1,4-diaminobutane], the “n (refractive index)” value in data set [1] is given as 1.457. In data set [2], the logP is given as −0.9.

For the compound `CSC` [DMS, dimethylsulphide], the “n (refractive index)” value in data set [1] is 1.4487. In addition, the logP in data set [2] is 2.7. Turning to `CCCSCCC` [DPS, dipropylsulphide], the “n (refractive index)” value in data set [1] was 1.435. In addition, the logP in data set [2] is listed as 0.9. Regarding `O=C(O)[C@@H]1CCCN1` [proline], in data set [3], the hydrophobicity index is on record as 0.12. In the case of `NC(=O)C[C@H](N)C(=O)O` [asparagine], the hydrophobicity index in data set [3] is −0.74. For the compound `CCCCCN` [n-PA, n-pentylamine], in data set [1], the “n (refractive index)” value is 1.411. The logP in data set [2] is 1.5. `CN(C)C` [TMA, trimethylamine]: the “n (refractive index)” value in data set [1] was 1.3631. Moreover, the logP in data set [2] was 0.3. On to `CCN(CC)CC` [TEA, triethylamine], for which, in data set [1], the “n (refractive index)” value is reported as 1.401. In addition, the log partition coefficient (logP) in data set [2] is 1.4. For the compound `NCCCCCN` [DAP, 1,5-diaminopentane], in data set [1], the “n (refractive index)” value was 1.458. In addition, in data set [2], the logP is −0.6.
